# Reference: patent US9994547B2, “Heteroarylamide inhibitors of TBK1” (Takeda Pharmaceutical Company Limited, priority 2014, dated 2018)
# Biological target: Full length human TBK1 (Homo sapiens (Human), UniProt Q9UHD2)
# Test: Inhibition of TBK1 Enzyme (Example A)
# Type: biochemical
# Settings: -log(IC50), IC50 molar; 3 nM TBK1, 25 μM ATP, 60 min RT
# Summary of the method: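 Full-length N-His human TBK1 from Sf9 baculovirus was tested with 11-point 2.5-fold dilutions (1% DMSO) in Hepes pH 7.4, MgCl2, EDTA, Brij, DTT. After 60 min RT and EDTA quench, microfluidic conversion was fitted and reported as pIC50.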
# Chain of Full length human TBK1 (Q9UHD2 whole entry): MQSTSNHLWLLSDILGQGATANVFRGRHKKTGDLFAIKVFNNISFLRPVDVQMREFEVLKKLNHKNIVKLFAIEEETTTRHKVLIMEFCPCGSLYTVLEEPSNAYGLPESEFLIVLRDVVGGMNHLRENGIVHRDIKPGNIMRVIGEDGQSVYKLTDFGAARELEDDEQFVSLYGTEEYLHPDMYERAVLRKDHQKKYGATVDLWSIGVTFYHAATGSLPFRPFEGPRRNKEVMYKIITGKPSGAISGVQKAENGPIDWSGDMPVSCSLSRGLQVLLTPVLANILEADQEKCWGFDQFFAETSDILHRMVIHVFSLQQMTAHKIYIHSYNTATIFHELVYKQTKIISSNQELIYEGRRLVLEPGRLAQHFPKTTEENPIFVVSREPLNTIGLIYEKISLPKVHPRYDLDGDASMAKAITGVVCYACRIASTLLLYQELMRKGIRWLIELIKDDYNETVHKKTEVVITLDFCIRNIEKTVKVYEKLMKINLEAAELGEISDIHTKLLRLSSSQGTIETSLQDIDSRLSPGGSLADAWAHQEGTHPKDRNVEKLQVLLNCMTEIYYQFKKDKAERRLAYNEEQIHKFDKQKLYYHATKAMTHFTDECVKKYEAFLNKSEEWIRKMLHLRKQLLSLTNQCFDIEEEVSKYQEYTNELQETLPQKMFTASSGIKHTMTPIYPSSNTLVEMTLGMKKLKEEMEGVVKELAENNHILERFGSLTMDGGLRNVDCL
row,TBK1 Inhibition (pIC50),SMILES
1,5.1,"COCCN1CCN(C(=O)CNc2cc(-c3cnc(NC(=O)C4CC4)cn3)cnc2C#N)CC1 [Example 98, N-(5-(6-cyano-5-((2-(4-(2-methoxyethyl)piperazin-1-yl)-2-oxoethyl)amino)pyridin-3-yl)pyrazin-2-yl)cyclopropanecarboxamide]"
2,6.9,"CC(O)CN(C)C(=O)CNc1cc(-c2cnc(NC(=O)C3CC3)cn2)ccc1C#N (centres unmarked) [Example 134, N-(5-(4-cyano-3-((2-((2-hydroxypropyl)(methyl)amino)-2-oxoethyl)amino)phenyl)pyrazin-2-yl)cyclopropanecarboxamide]"
3,7.7,"C[C@H](Nc1cc(-c2cnc(NC(=O)[C@@H]3C[C@@H]3C)cn2)cnc1C#N)C(=O)N(C)C [Example 108, (1R,2S)-N-(5-(6-cyano-5-(((S)-1-(dimethylamino)-1-oxopropan-2-yl)amino)pyridin-3-yl)pyrazin-2-yl)-2-methylcyclopropanecarboxamide]"
4,6.6,"CC(C)(O)CN(CC(F)(F)F)C(=O)CNc1cc(-c2cnc(NC(=O)C3CC3)cn2)cnc1C#N [Example 111, N-(5-(6-cyano-5-((2-((2-hydroxy-2-methylpropyl)(2,2,2-trifluoroethyl)amino)-2-oxoethyl)amino)pyridin-3-yl)pyrazin-2-yl)cyclopropanecarboxamide]"
5,7.2,"N#CCN(CCO)C(=O)CNc1cc(-c2cnc(NC(=O)C3CC3)cn2)cnc1C#N [Example 87, N-(5-(6-cyano-5-((2-((cyanomethyl)(2-hydroxyethyl)amino)-2-oxoethyl)amino)pyridin-3-yl)pyrazin-2-yl)cyclopropanecarboxamide]"
6,7.0,"CC[C@H](Nc1cc(-c2cnc(NC(=O)C3CC3)cn2)ncc1C#N)C(=O)N(C)C [Example 127, (S)-N-(5-(5-cyano-4-((1-(dimethylamino)-1-oxobutan-2-yl)amino)pyridin-2-yl)pyrazin-2-yl)cyclopropanecarboxamide]"
7,7.4,"C[C@H](Nc1cc(-c2cnc(NC(=O)[C@H]3C[C@@H]3C)cn2)cnc1C#N)C(=O)N(C)C [Example 106, (1S,2S)-N-(5-(6-cyano-5-(((S)-1-(dimethylamino)-1-oxopropan-2-yl)amino)pyridin-3-yl)pyrazin-2-yl)-2-methylcyclopropanecarboxamide]"
8,7.7,"C[C@H](Nc1cc(-c2cnc(NC(=O)C3CC3)cn2)cnc1C#N)C(=O)N1CC[C@H](F)C1 [Example 139, N-(5-(6-cyano-5-(((S)-1-((S)-3-fluoropyrrolidin-1-yl)-1-oxopropan-2-yl)amino)pyridin-3-yl)pyrazin-2-yl)cyclopropanecarboxamide]"
9,7.6,"C[C@H](Nc1cc(-c2cnc(NC(=O)C3CC3)cn2)cnc1C#N)C(=O)N(C)[C@H](C)C#N [Example 88, N-(5-(6-cyano-5-(((S)-1-(((R)-1-cyanoethyl)(methyl)amino)-1-oxopropan-2-yl)amino)pyridin-3-yl)pyrazin-2-yl)cyclopropanecarboxamide]"
10,7.6,"C[C@H](Nc1cc(-c2cnc(NC(=O)C3CC3)cn2)cc(F)c1C#N)C(=O)N(C)C [Example 137, (S)-N-(5-(4-cyano-3-((1-(dimethylamino)-1-oxopropan-2-yl)amino)-5-fluorophenyl)pyrazin-2-yl)cyclopropanecarboxamide]"

# Second part, the compound before the results:
row,SMILES,TBK1 Inhibition (pIC50)
1,"CC(C)C(Nc1cc(-c2cnc(NC(=O)C3CC3)cn2)ccc1C#N)C(=O)N(C)C (centres unmarked) [Example 5, N-(5-(4-cyano-3-((1-(dimethylamino)-3-methyl-1-oxobutan-2-yl)amino)phenyl)pyrazin-2-yl)cyclopropanecarboxamide]",7.3
2,"C[C@H](Nc1cc(-c2cnc(NC(=O)C3CC3)cn2)cnc1C#N)C(=O)N(C)CC#N [Example 50, (S)-N-(5-(6-cyano-5-((1-((cyanomethyl)(methyl)amino)-1-oxopropan-2-yl)amino)pyridin-3-yl)pyrazin-2-yl)cyclopropanecarboxamide]",7.9
3,"CCC(Nc1cc(-c2cnc(NC(=O)C3CC3)cn2)cnc1C#N)C(=O)N(C)C1CC1 (centres unmarked) [Example 36, N-(5-(6-cyano-5-((1-(cyclopropyl(methyl)amino)-1-oxobutan-2-yl)amino)pyridin-3-yl)pyrazin-2-yl)cyclopropanecarboxamide]",7.3
4,"CN(C)C(=O)C(CC#N)Nc1cc(-c2cnc(NC(=O)C3CC3)cn2)cnc1C#N (centres unmarked) [Example 44, N-(5-(6-cyano-5-((3-cyano-1-(dimethylamino)-1-oxopropan-2-yl)amino)pyridin-3-yl)pyrazin-2-yl)cyclopropanecarboxamide]",6.2
5,"C[C@@H](Nc1cc(-c2cnc(NC(=O)C3CC3)cn2)ccc1C#N)C(=O)N(C)C [Example 2, (R)-N-(5-(4-cyano-3-((1-(dimethylamino)-1-oxopropan-2-yl)amino)phenyl)pyrazin-2-yl)cyclopropanecarboxamide]",7.1
6,"N#Cc1ncc(-c2cnc(NC(=O)C3CC3)cn2)cc1NCC(=O)N1CCOCC1C#N (centres unmarked) [Example 63, N-(5-(6-cyano-5-((2-(3-cyanomorpholino)-2-oxoethyl)amino)pyridin-3-yl)pyrazin-2-yl)cyclopropanecarboxamide]",7.2
7,"CC(C#N)NC(=O)[C@H](C)Nc1cc(-c2cnc(NC(=O)C3CC3)cn2)cnc1C#N (stereo partly drawn) [Example 62, N-(5-(6-cyano-5-(((2S)-1-((1-cyanoethyl)amino)-1-oxopropan-2-yl)amino)pyridin-3-yl)pyrazin-2-yl)cyclopropanecarboxamide]",6.6
8,"CN(C)C(=O)[C@H](CO)Nc1cc(-c2cnc(NC(=O)C3CC3)cn2)cnc1C#N [Example 57, (S)-N-(5-(6-cyano-5-((1-(dimethylamino)-3-hydroxy-1-oxopropan-2-yl)amino)pyridin-3-yl)pyrazin-2-yl)cyclopropanecarboxamide]",7.2
9,"N#Cc1ncc(-c2cnc(NC(=O)C3CC3)cn2)cc1NCC(=O)N1CCC[C@@H]1C(F)(F)F [Example 48, (R)-N-(5-(6-cyano-5-((2-oxo-2-(2-(trifluoromethyl)pyrrolidin-1-yl)ethyl)amino)pyridin-3-yl)pyrazin-2-yl)cyclopropanecarboxamide]",8.2
10,"COCC[C@H](Nc1cc(-c2cnc(NC(=O)C3CC3)cn2)cnc1C#N)C(=O)N(C)CCO [Example 52, (S)-N-(5-(6-cyano-5-((1-((2-hydroxyethyl)(methyl)amino)-4-methoxy-1-oxobutan-2-yl)amino)pyridin-3-yl)pyrazin-2-yl)cyclopropanecarboxamide]",6.5
11,"CC[C@@H](Nc1cc(-c2cnc(NC(=O)C3CC3)cn2)ccc1C#N)C(=O)N(C)C [Example 26, (R)-N-(5-(4-cyano-3-((1-(dimethylamino)-1-oxobutan-2-yl)amino)phenyl)pyrazin-2-yl)cyclopropanecarboxamide]",8.5
12,"C[C@H](Nc1cc(-c2cnc(NC(=O)C3CC3)cn2)ccc1C#N)C(=O)NCCO [Example 13, (S)-N-(5-(4-cyano-3-((1-((2-hydroxyethyl)amino)-1-oxopropan-2-yl)amino)phenyl)pyrazin-2-yl)cyclopropanecarboxamide]",6.3
13,"CC[C@H](Nc1cc(-c2cnc(NC(=O)C3CC3)cn2)cnc1C#N)C(=O)N(C)CCO [Example 70, (S)-N-(5-(6-cyano-5-((1-((2-hydroxyethyl)(methyl)amino)-1-oxobutan-2-yl)amino)pyridin-3-yl)pyrazin-2-yl)cyclopropanecarboxamide]",7.1
14,"N#Cc1ncc(-c2cnc(NC(=O)C3CC3)cn2)cc1NCC(=O)N1CCC[C@@H]1C#N [Example 45, (R)-N-(5-(6-cyano-5-((2-(2-cyanopyrrolidin-1-yl)-2-oxoethyl)amino)pyridin-3-yl)pyrazin-2-yl)cyclopropanecarboxamide]",7.5
15,"CN(Cc1cnccn1)C(=O)CNc1cc(-c2cnc(NC(=O)C3CC3)cn2)cnc1C#N [Example 76, N-(5-(6-cyano-5-((2-(methyl(pyrazin-2-ylmethyl)amino)-2-oxoethyl)amino)pyridin-3-yl)pyrazin-2-yl)cyclopropanecarboxamide]",5.3
16,"C[C@H]1COCCN1C(=O)CNc1cc(-c2cnc(NC(=O)C3CC3)cn2)cnc1C#N [Example 84, (S)-N-(5-(6-cyano-5-((2-(3-methylmorpholino)-2-oxoethyl)amino)pyridin-3-yl)pyrazin-2-yl)cyclopropanecarboxamide]",7.2
17,"C[C@H](Nc1cc(-c2cnc(NC(=O)C3CC3)cn2)cnc1C#N)C(=O)N(C)c1cccnc1 [Example 74, (S)-N-(5-(6-cyano-5-((1-(methyl(pyridin-3-yl)amino)-1-oxopropan-2-yl)amino)pyridin-3-yl)pyrazin-2-yl)cyclopropanecarboxamide]",5.5
18,"CN(C)C(=O)[C@@H](CC(F)F)Nc1cc(-c2cnc(NC(=O)C3CC3)cn2)cnc1C#N [Example 78, (R)-N-(5-(6-cyano-5-((1-(dimethylamino)-4,4-difluoro-1-oxobutan-2-yl)amino)pyridin-3-yl)pyrazin-2-yl)cyclopropanecarboxamide]",6.6

# Same assay, conditions: -log(IC50), IC50 molar; 3 nM TBK1, 25 μM ATP, 60 min RT; read-out: TBK1 Inhibition (pIC50) (converted)
row,SMILES,IC50
1,"CC[C@H](Nc1cc(-c2cnc(NC(=O)C3CC(C)(O)C3)cn2)cnc1C#N)C(=O)N(C)C (stereo partly drawn) [Example 147, (S)-N-(5-(6-cyano-5-((1-(dimethylamino)-1-oxobutan-2-yl)amino)pyridin-3-yl)pyrazin-2-yl)-3-hydroxy-3-methylcyclobutanecarboxamide]",398 nM
